“And” between values parts separate entries of the source, which are not always exact repeats. Equal values may be shown once.
Test system: C. elegans
Conditions: Table S2, C. elegans SS assay, 110 μM, averages of 4 data points

Row | SMILES | Percentage of motility inhibition 0 h | Percentage of motility inhibition 24 h
1 | CC[C@H]1OC(=O)C[C@@H](O)[C@H](C)[C@@H](O[C@@H]2O[C@H](C)[C@@H](O)[C@H](N(C)C)[C@H]2O)[C@@H](CCN2C[C@H](C)C[C@H](C)C2)C[C@@H](C)C(=O)/C=C/C(C)=C/[C@@H]1CO[C@@H]1O[C@H](C)[C@@H](O)[C@@H](OC)[C@H]1OC.O=P(O)(O)O [Tilmicosin (phosphate)] | 6% | 10%
2 | CC(C)=CCC[C@H](C)[C@@H]1CC[C@]2(C)C3=C(CC[C@@]12C)[C@@]1(C)CC[C@H](O)C(C)(C)[C@@H]1CC3 [Tirucallol] | 12% | 39%
3 | Cl.c1ccc(CC2=NCCN2)cc1 [Tolazoline (hydrochloride)] | 21% | 0%
4 | Cc1cc(-n2c(=O)[nH]c(=O)n(C)c2=O)ccc1Oc1ccc(S(=O)(=O)C(F)(F)F)cc1 [Toltrazuril (sulfone)] | 38% | 12%
5 | CC[C@@]1(O)C(=O)OCc2c1cc1n(c2=O)Cc2cc3c(CN(C)C)c(O)ccc3nc2-1.Cl [Topotecan (Hydrochloride)] | 5% | 3%
6 | CC[C@@]1(O)C(=O)OCc2c1cc1n(c2=O)Cc2cc3c(CN(C)C)c(O)ccc3nc2-1.Cl [Topotecan (hydrochloride)] | 19% | 6%
7 | O=c1cc(-c2ccccc2)oc2cc(O)cc(O[C@@H]3O[C@H](CO)[C@@H](O)[C@H](O)[C@H]3O)c12 [Toringin] | 0% | 2%
8 | C[C@@H]1CC[C@]2(C(=O)O)CC[C@]3(C)C(=CC[C@@H]4[C@@]5(C)C[C@@H](O)[C@H](O)C(C)(C)[C@@H]5CC[C@]43C)[C@@H]2[C@]1(C)O [Tormentic acid] | 3% | 5%
9 | NC1CCN(c2nc3c(cc2F)c(=O)c(C(=O)O)cn3-c2ccc(F)cc2F)C1 (stereo not shown) [Tosufloxacin (tosylate hydrate)] | 44% | 36%
10 | O=C(/C=C/c1ccc(O)cc1)OC[C@H]1O[C@@H](Oc2c(-c3ccc(O)cc3)oc3cc(O)cc(O)c3c2=O)[C@H](O)[C@@H](O)[C@@H]1O [Tribuloside] | 13% | 16%
11 | Cc1c(O)c(O)cc2c1CC=C1[C@@]2(C)CC[C@@]2(C)[C@@H]3C[C@](C)(C(=O)O)CC[C@]3(C)CC[C@]12C [Triptohypol C] | 0% | 43%
12 | CC(C)[C@]12O[C@H]1[C@@H]1O[C@@]13[C@@]1(C)CCC4=C(COC4=O)[C@@H]1C[C@@H]1O[C@@]13C2=O [Triptonide] | 7% | 13%
13 | C[C@@H]1O[C@@H](OC[C@H]2O[C@@H](Oc3c(-c4ccc(OCCO)c(OCCO)c4)oc4cc(OCCO)cc(O)c4c3=O)[C@H](O)[C@@H](O)[C@@H]2O)[C@H](O)[C@H](O)[C@H]1O [Troxerutin] | 0% and 3% | 0% and 6%
14 | CC(=O)O[C@@H]1CC[C@]2(C)C3=C(CC[C@H]2C1(C)C)[C@]1(C)CC[C@H]([C@@H](CCC=C(C)C)C(=O)O)[C@@]1(C)CC3 [Tsugaric acid A] | 12% | 12%
15 | C[C@@H]1O[C@H]2O[C@H]3[C@@H](OC[C@H](O)[C@@H]3O)OC(=O)[C@]34CCC(C)(C)C[C@H]3C3=CC[C@@H]5[C@@]6(C)C[C@H](O)[C@H](O[C@@H]7O[C@H](CO)[C@@H](O)[C@H](O)[C@H]7O[C@@H]7O[C@@H](COC(=O)C[C@](C)(O)CC(=O)O[C@@H]1[C@@H](O[C@@H]1OC[C@@H](O)[C@H](O)[C@H]1O)[C@H]2O)[C@H](O)[C@@H](O)[C@@H]7O)[C@@](C)(CO)[C@@H]6CC[C@@]5(C)[C@]3(C)C[C@H]4O [Tubeimoside III] | 0% | 36%
16 | CC1OC2OC3C(OCC(O)C3O)OC(=O)C34CCC(C)(C)CC3C3=CCC5C6(C)CC(O)C(OC7OC(CO)C(O)C(O)C7OC7OCC(OC(=O)CC(C)(O)CC(=O)OC1C(OC1OCC(O)C(O)C1O)C2O)C(O)C7O)C(C)(CO)C6CCC5(C)C3(C)CC4O (stereo not shown) [Tubeimoside II] | 0% | 2%
17 | CCCNC[C@]1(O)[C@H](C)O[C@@H](O[C@H]2[C@H](C)[C@@H](O[C@@H]3O[C@H](C)C[C@H](N(C)C)[C@H]3O)[C@](C)(O)C[C@@H](C)CN[C@H](C)[C@@H](O)[C@](C)(O)[C@@H](CC)OC(=O)[C@@H]2C)C[C@@]1(C)OC [Tulathromycin A] | 20% | 9%
18 | C=C1[C@H](OC(=O)/C=C(\C)CC)C[C@@H](C(C)C)[C@@H]2[C@@H]([C@@H](C)OC(C)=O)C(=O)C[C@@H]12 [Tussilagone] | 12% | 31%
19 | CC[C@H]1OC(=O)C[C@@H](O)[C@H](C)[C@@H](O[C@@H]2O[C@H](C)[C@@H](O[C@H]3C[C@@](C)(O)[C@@H](O)[C@H](C)O3)[C@H](N(C)C)[C@H]2O)[C@@H](CC=O)C[C@@H](C)C(=O)/C=C/C(C)=C/[C@@H]1CO[C@@H]1O[C@H](C)[C@@H](O)[C@@H](OC)[C@H]1OC.O=C(O)C(O)C(O)C(=O)O [Tylosin (tartr ate)] | 0% | 1%
20 | COc1cc(-c2oc3cc(O)cc(O)c3c(=O)c2O[C@@H]2O[C@H](CO[C@@H]3O[C@@H](C)[C@H](O)[C@@H](O)[C@H]3O)[C@@H](O)[C@H](O)[C@H]2O[C@@H]2O[C@@H](C)[C@H](O)[C@@H](O)[C@H]2O)ccc1O [Typhaneoside] | 26% | 15%
21 | CC1=CC(=O)C2(C(C)C)CC12 (stereo not shown) [Umbellulone] | 0% | 1%
22 | NC(N)=O [Urea] | 10% | 13%
23 | CC(=O)O[C@H]1CC[C@]2(C)[C@H]3CC=C4[C@@H]5[C@@H](C)[C@H](C)CC[C@]5(C(=O)O)CC[C@@]4(C)[C@]3(C)CC[C@H]2C1(C)C [Ursolic acid acetate] | 24% | 18%
24 | C/C=C1\C[C@@H](C)[C@](O)(CO)C(=O)OCC2=CC[N+]3([O-])CC[C@@H](OC1=O)[C@@H]23 (stereo partly shown) [Usaramine N‐oxide] | 22% and 12% | 
25 | C/C=C1\C[C@@H](C)[C@](O)(CO)C(=O)OCC2=CCN3CC[C@@H](OC1=O)[C@@H]23 [Usaramine] | 31% | 21%
26 | O=c1cc(-c2ccc(O[C@@H]3O[C@H](CO)[C@@H](O)[C@H](O)[C@H]3O)cc2)oc2cc(O)c([C@@H]3O[C@H](CO)[C@@H](O)[C@H](O)[C@H]3O[C@@H]3OC[C@H](O)[C@H](O)[C@H]3O)c(O)c12 [Vaccarin] | 0% | 6%
27 | CC(C)[C@H](N)C(=O)OCCOCn1cnc2c(=O)nc(N)[nH]c21.Cl [Valacyclovir (hydrochloride)] | 38% | 9%
28 | C=C(C)[C@@H]1CCC2=CCC[C@@H](C)[C@]2(C)C1 [Valencene] | 3% | 4%

Source: PMC11855827, “High-Throughput Screening of Five Compound Libraries for Anthelmintic Activity and Toxicity Leads to the Discovery of Two Flavonoid Compounds” (International Journal of Molecular Sciences, 2025)
